Reference: PMC11249646, “Small-Molecule Disruptors of the Interaction between Calcium- and Integrin-Binding Protein 1 and Integrin αIIbβ3 as Novel Antiplatelet Agents” (ACS Pharmacology & Translational Science, 2024)
pIC50: −log10 of the molar value.

Molecular target: T1, CIB1 and αIIb interaction (CIB1-GST : F-αIIb peptide) (Homo sapiens, UniProt Q99828)
T1 construct: made in house; host or cells: BL-21 plus RIL cells (E. coli)
T1 sequence (Q99828 1-191): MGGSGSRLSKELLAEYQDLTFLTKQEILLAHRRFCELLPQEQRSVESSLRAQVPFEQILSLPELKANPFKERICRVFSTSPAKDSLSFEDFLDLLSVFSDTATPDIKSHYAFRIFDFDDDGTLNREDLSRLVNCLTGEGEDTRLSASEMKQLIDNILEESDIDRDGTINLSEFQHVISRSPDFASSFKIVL
Test: FP assay, 1536-well qHTS format (primary and confirmatory screen)
Format: binding
Conditions: qHTS FP screen hits, Table S2; negative = inhibition

Efficacy (%)	Structure (SMILES)
-40%	CC(=O)NC(c1cccs1)c1cc(Br)c2cccnc2c1O (stereo not shown) [NCGC00188370-02]
-27%	Cc1ccc(CNc2ncnc3ccc(-c4ccc([C@@H](C)O)o4)cc23)o1 [NCGC00189252-01]

Same assay, conditions: qHTS FP screen hits, Table S2; read-out: IC50

pIC50	Structure (SMILES)
4.34	CC(=O)NC(c1cccs1)c1cc(Br)c2cccnc2c1O (stereo not shown) [NCGC00188370-02]
4.90	Cc1ccc(CNc2ncnc3ccc(-c4ccc([C@@H](C)O)o4)cc23)o1 [NCGC00189252-01]

Same assay, conditions: qHTS primary screen hits, Table S2; negative = inhibition

Structure (SMILES)	Efficacy (%)
Cc1ccc(NS(=O)(=O)c2ccc3[nH]c(=O)[nH]c3c2)cc1C.O=C(O)C(F)(F)F [NCGC00187759-01]	-68%
Cl.O=c1c2ccccc2nc2sc(Nc3cccc(N4CCNCC4)c3)nn12 [NCGC00187809-01]	-32%
CN(C)c1cccc(N2CCN(c3nn4c(=O)c5ccccc5nc4s3)CC2)c1.Cl [NCGC00187811-01]	-35%
CN(C)c1cccc(-c2cnc(N3CCC(c4ncc[nH]4)CC3)s2)c1.O=C(O)C(F)(F)F [NCGC00187899-01]	-34%
O=C(Nc1ccc2ccccc2c1)Nc1nnc(-c2ccccn2)s1.O=C(O)C(F)(F)F [NCGC00188528-01]	-30%
Cc1nc(CNc2ncnc3ccc(-c4ccc(CO)o4)cc23)cs1.O=C(O)C(F)(F)F [NCGC00188652-01]	-35%
Cc1ccc(CNc2ncnc3ccc(-c4ccc(CO)o4)cc23)o1.O=C(O)C(F)(F)F [NCGC00188654-01]	-45%
O=C(O)C(F)(F)F.OCc1ccc(-c2ccc3ncnc(NCCc4c[nH]cn4)c3c2)o1 [NCGC00188669-01]	-40%
O=C(O)C(F)(F)F.OCc1ccc(-c2ccc3ncnc(NCc4ncc[nH]4)c3c2)o1 [NCGC00188670-01]	-33%
CCc1nnc(Nc2ncnc3scc(-c4cccc(S(C)(=O)=O)c4)c23)s1.O=C(O)C(F)(F)F [NCGC00188733-01]	-31%
CCC(=O)NC(c1cccs1)c1cc(Cl)c2cccnc2c1O (stereo not shown) [NCGC00188867-01]	-29%
O=C(O)C(F)(F)F.O=C(O)c1ccc(-c2ccc3ncnc(NCc4cccs4)c3c2)o1 [NCGC00189277-01]	-25%
Cc1ccc(N[S+](=O)([O-])c2cc3c(cc2N[C@@H](C)CO)NC(=O)CC3)cc1N[C@@H](C)CO [NCGC00189369-01]	-29%
O=C(Nc1ccccc1)c1ccccc1NC(=O)C1CCCCC1 [NCGC00189487-01]	-27%
COc1ccc(NC(=O)c2cccs2)cn1.O=C(O)C(F)(F)F [NCGC00229661-01]	-41%
O=C1CCCC2=C1C(c1n[nH]cc1Br)N=C(Nc1nc3ccccc3o1)N2 (stereo not shown) [NCGC00229723-01]	-18%
Cc1cc(C2N=C(Nc3nc4ccccc4o3)NC3=C2C(=O)CCC3)n[nH]1.O=C(O)C(F)(F)F (stereo not shown) [NCGC00229726-01]	-26%
CC1=C(C(=O)N(C)C)C(c2ccccc2Br)N=C(Nc2nc3ccccc3o2)N1.O=C(O)C(F)(F)F (stereo not shown) [NCGC00229733-01]	-27%
CN1CCN(c2ccc(NC(=O)CN(C)Cc3c(O)ccc4ccccc34)cc2)CC1.O=C(O)C(F)(F)F [NCGC00229739-01]	-49%
CC(C)(C)CNc1ncnc2ccc(-c3ccc(CO)o3)cc12.O=C(O)C(F)(F)F [NCGC00238375-01]	-42%
O=C(O)C(F)(F)F.OCc1ccc(-c2ccc3ncnc(N4CCOCC4)c3c2)o1 [NCGC00238384-01]	-42%
O=C(Nc1ccc(Cl)c(Cl)c1)Nc1nnc(N2CCNCC2)s1.O=C(O)C(F)(F)F [NCGC00238616-01]	-35%

Same assay, conditions: qHTS primary screen hits, Table S2; negative sign = inhibitory curve

Structure (SMILES)	Curve Class
Cc1ccc(NS(=O)(=O)c2ccc3[nH]c(=O)[nH]c3c2)cc1C.O=C(O)C(F)(F)F [NCGC00187759-01]	-2.4
CN(C)c1cccc(N2CCN(c3nn4c(=O)c5ccccc5nc4s3)CC2)c1.Cl [NCGC00187811-01]	-2.4
CN(C)c1cccc(-c2cnc(N3CCC(c4ncc[nH]4)CC3)s2)c1.O=C(O)C(F)(F)F [NCGC00187899-01]	-2.4
Cc1ccc(CNc2ncnc3ccc(-c4ccc(CO)o4)cc23)o1.O=C(O)C(F)(F)F [NCGC00188654-01]	-2.2
O=C1CCCC2=C1C(c1n[nH]cc1Br)N=C(Nc1nc3ccccc3o1)N2 (stereo not shown) [NCGC00229723-01]	-2.4
CC1=C(C(=O)N(C)C)C(c2ccccc2Br)N=C(Nc2nc3ccccc3o2)N1.O=C(O)C(F)(F)F (stereo not shown) [NCGC00229733-01]	-2.4

Same assay, conditions: qHTS primary screen hits, Table S2; negative sign = inhibitory curve; several classes where COUNT > 1

Structure (SMILES)	Curve Class
Cl.O=c1c2ccccc2nc2sc(Nc3cccc(N4CCNCC4)c3)nn12 [NCGC00187809-01]	-2.4
O=C(Nc1ccc2ccccc2c1)Nc1nnc(-c2ccccn2)s1.O=C(O)C(F)(F)F [NCGC00188528-01]	-2.4
Cc1nc(CNc2ncnc3ccc(-c4ccc(CO)o4)cc23)cs1.O=C(O)C(F)(F)F [NCGC00188652-01]	-2.4
O=C(O)C(F)(F)F.OCc1ccc(-c2ccc3ncnc(NCCc4c[nH]cn4)c3c2)o1 [NCGC00188669-01]	-2.4
O=C(O)C(F)(F)F.OCc1ccc(-c2ccc3ncnc(NCc4ncc[nH]4)c3c2)o1 [NCGC00188670-01]	-2.4
CCc1nnc(Nc2ncnc3scc(-c4cccc(S(C)(=O)=O)c4)c23)s1.O=C(O)C(F)(F)F [NCGC00188733-01]	-2.2
CCC(=O)NC(c1cccs1)c1cc(Cl)c2cccnc2c1O (stereo not shown) [NCGC00188867-01]	-2.4
O=C(O)C(F)(F)F.O=C(O)c1ccc(-c2ccc3ncnc(NCc4cccs4)c3c2)o1 [NCGC00189277-01]	-2.4
Cc1ccc(N[S+](=O)([O-])c2cc3c(cc2N[C@@H](C)CO)NC(=O)CC3)cc1N[C@@H](C)CO [NCGC00189369-01]	-2.4
O=C(Nc1ccccc1)c1ccccc1NC(=O)C1CCCCC1 [NCGC00189487-01]	-2.4
COc1ccc(NC(=O)c2cccs2)cn1.O=C(O)C(F)(F)F [NCGC00229661-01]	-2.2
Cc1cc(C2N=C(Nc3nc4ccccc4o3)NC3=C2C(=O)CCC3)n[nH]1.O=C(O)C(F)(F)F (stereo not shown) [NCGC00229726-01]	-2.4
CN1CCN(c2ccc(NC(=O)CN(C)Cc3c(O)ccc4ccccc34)cc2)CC1.O=C(O)C(F)(F)F [NCGC00229739-01]	-3
CC(C)(C)CNc1ncnc2ccc(-c3ccc(CO)o3)cc12.O=C(O)C(F)(F)F [NCGC00238375-01]	-2.2
O=C(O)C(F)(F)F.OCc1ccc(-c2ccc3ncnc(N4CCOCC4)c3c2)o1 [NCGC00238384-01]	-2.2
O=C(Nc1ccc(Cl)c(Cl)c1)Nc1nnc(N2CCNCC2)s1.O=C(O)C(F)(F)F [NCGC00238616-01]	-2.4

Same assay, conditions: qHTS primary screen hits, Table S2; read-out: IC50

Structure (SMILES)	pIC50
Cc1ccc(NS(=O)(=O)c2ccc3[nH]c(=O)[nH]c3c2)cc1C.O=C(O)C(F)(F)F [NCGC00187759-01]	5.40
Cl.O=c1c2ccccc2nc2sc(Nc3cccc(N4CCNCC4)c3)nn12 [NCGC00187809-01]	4.35
CN(C)c1cccc(N2CCN(c3nn4c(=O)c5ccccc5nc4s3)CC2)c1.Cl [NCGC00187811-01]	4.30
CN(C)c1cccc(-c2cnc(N3CCC(c4ncc[nH]4)CC3)s2)c1.O=C(O)C(F)(F)F [NCGC00187899-01]	4.10
O=C(Nc1ccc2ccccc2c1)Nc1nnc(-c2ccccn2)s1.O=C(O)C(F)(F)F [NCGC00188528-01]	4.25
Cc1nc(CNc2ncnc3ccc(-c4ccc(CO)o4)cc23)cs1.O=C(O)C(F)(F)F [NCGC00188652-01]	4.25
Cc1ccc(CNc2ncnc3ccc(-c4ccc(CO)o4)cc23)o1.O=C(O)C(F)(F)F [NCGC00188654-01]	4.30
O=C(O)C(F)(F)F.OCc1ccc(-c2ccc3ncnc(NCCc4c[nH]cn4)c3c2)o1 [NCGC00188669-01]	4.35
O=C(O)C(F)(F)F.OCc1ccc(-c2ccc3ncnc(NCc4ncc[nH]4)c3c2)o1 [NCGC00188670-01]	4.25
CCc1nnc(Nc2ncnc3scc(-c4cccc(S(C)(=O)=O)c4)c23)s1.O=C(O)C(F)(F)F [NCGC00188733-01]	4.30
CCC(=O)NC(c1cccs1)c1cc(Cl)c2cccnc2c1O (stereo not shown) [NCGC00188867-01]	4.35
O=C(O)C(F)(F)F.O=C(O)c1ccc(-c2ccc3ncnc(NCc4cccs4)c3c2)o1 [NCGC00189277-01]	4.05
Cc1ccc(N[S+](=O)([O-])c2cc3c(cc2N[C@@H](C)CO)NC(=O)CC3)cc1N[C@@H](C)CO [NCGC00189369-01]	4.15
O=C(Nc1ccccc1)c1ccccc1NC(=O)C1CCCCC1 [NCGC00189487-01]	4.25
COc1ccc(NC(=O)c2cccs2)cn1.O=C(O)C(F)(F)F [NCGC00229661-01]	4.30
O=C1CCCC2=C1C(c1n[nH]cc1Br)N=C(Nc1nc3ccccc3o1)N2 (stereo not shown) [NCGC00229723-01]	4.30
Cc1cc(C2N=C(Nc3nc4ccccc4o3)NC3=C2C(=O)CCC3)n[nH]1.O=C(O)C(F)(F)F (stereo not shown) [NCGC00229726-01]	4.25
CC1=C(C(=O)N(C)C)C(c2ccccc2Br)N=C(Nc2nc3ccccc3o2)N1.O=C(O)C(F)(F)F (stereo not shown) [NCGC00229733-01]	4.25
CN1CCN(c2ccc(NC(=O)CN(C)Cc3c(O)ccc4ccccc34)cc2)CC1.O=C(O)C(F)(F)F [NCGC00229739-01]	4.05
CC(C)(C)CNc1ncnc2ccc(-c3ccc(CO)o3)cc12.O=C(O)C(F)(F)F [NCGC00238375-01]	4.30
O=C(O)C(F)(F)F.OCc1ccc(-c2ccc3ncnc(N4CCOCC4)c3c2)o1 [NCGC00238384-01]	4.35
O=C(Nc1ccc(Cl)c(Cl)c1)Nc1nnc(N2CCNCC2)s1.O=C(O)C(F)(F)F [NCGC00238616-01]	4.10
